Marks after values point to notes of the source that are not given here.
Assays:
Assay type in all cases: in vivo, SD rats
[1] = test system: rat models with focal cerebral ischemia-reperfusion (tMCAO); test: Rotarod test (latent period of falling) in tMCAO model rats; details: Gavage, 3 × 10^−5 mol/kg, 3 administrations, about 24 h after last administration, x ± s
Protocol: (§1) Rat models with focal cerebral ischemia-reperfusion (tMCAO) were prepared by using a suture-occluded method, and therapeutic effects of the test drugs on the tMCAO model rats were investigated.
(§2) A specific modeling method for the rat models with focal cerebral ischemia-reperfusion (tMCAO) is as follows. At 12 h before surgery, the rats were fed at about 30 g/piece. After induced anesthesia with 3-4% isoflurane and maintained anesthesia with 1.5-2.5% isoflurane were performed, the rats were placed at supine positions on an operating table at a constant temperature of 37° C. The skin in middle lines of necks was cut, subcutaneous tissues and muscles were bluntly separated, and common carotid arteries on right sides, internal carotid arteries and external carotid arteries were separated. Two ligation threads were allowed to penetrate through the external carotid arteries to ligate distal ends, an artery clamp was placed at the common carotid arteries and the internal carotid arteries, respectively, small incisions were made at 45° diagonally on the external carotid arteries at about 4 mm away from bifurcations of the common carotid arteries, and suitable suture occlusions were inserted to gently ligate proximal ends. The external carotid arteries were cut, directions and angles of the suture occlusions were adjusted, the suture occlusions were gently pushed and inserted into the internal carotid arteries, and then the artery clamps were released. The suture occlusions were continuously inserted until black dot marks of the suture occlusions reached junctions of the internal carotid arteries and the common carotid arteries at a length of about 18-20 mm. The proximal ends of the external carotid arteries were tightened, the suture occlusions were fixed, the skin was sutured after it was confirmed that there was no bleeding, the body temperature of the rats was maintained, and meloxicam as an analgesic drug was injected subcutaneously at 1 mg/kg.
(§3) At 2 h after ischemia, induced anesthesia with 3-4% isoflurane and maintained anesthesia with 1.5-2.5% isoflurane were performed, the skin sutures were cut, the ligation threads at the proximal ends of the external carotid arteries were opened, the suture occlusions were taken out, reperfusion was performed, ligation was performed again, and the skin was sutured after it was confirmed that there was no bleeding. In a sham-operated control group, other steps were the same as above except that the suture occlusions were inserted and pulled out immediately and the reperfusion was not required. After the surgery, the rats were allowed to lie prostrate and return to a cage.
(§4) When the animals were awake after modeling, behavioral scoring was performed on the animals with reference to a 4-point scoring standard of Zea longa. The animals with scores of 1-3 points were judged as successfully modeled animals, and the animals not meeting requirements were eliminated.
(§5) Method: SPF-grade male SD rats were used, the various tMCAO rat models were prepared by using the suture-occluded method, and the successfully modeled animals were randomly divided into 6 groups including a model control group, a test drug group 1, a test drug group 2, a test drug group 3, a test drug group 4 and a test drug group 5, with 6 or more animals in each group. In addition, the sham-operated control group was set, which involved 6 animals with the suture occlusions inserted and pulled out immediately in the surgery. […]

[2] = test system: rat models with focal cerebral ischemia-reperfusion (tMCAO); test: Percentage of cerebral infarction area (TTC staining) in tMCAO model rats; details: Gavage, about 24 h after last administration, x ± s
Protocol: as §1, §2, §3, §4, §5

[3] = test system: rat models with focal cerebral ischemia-reperfusion (tMCAO); test: Cerebral blood flow in tMCAO model rats; details: x ± s; for Cerebral blood flow 24 h after last administration / Cerebral blood flow improvement percentage / Recovery percentage of cerebral blood flow 24 h after last administration: 24 h after last of 3 administrations, 3×10^−5 mol/kg; for Cerebral blood flow before administration / Decrease percentage of cerebral blood flow before administration: after ischemia, before first administration; for Cerebral blood flow before ischemia: baseline before surgery, before any administration
Protocol: as §1, §2, §3, §4
as §5, with “surgery. At 4 h after the cerebral ischemia (at 4 h after the suture occlusions were pulled out in the sham-operated group), the various groups were given the various drugs or a vehicle for the first time. In each group, an administration dose was 3×10^−5 mol/kg, an administration volume was 3 mL/kg, administration was performed for a total of 3 times, and an administration time interval of every two times was 24 h.” for “surgery.”

[4] = test system: rat models with focal cerebral ischemia-reperfusion (tMCAO); test: Behavioral scoring of tMCAO model rats; details: about 24 h after last administration, x ± s
Protocol: as §1, §2, §3, §4, §5

[5] = test system: rat models with focal cerebral ischemia-reperfusion (tMCAO); test: Drug efficacy test in tMCAO model rats, overall result; details: latent period of falling, behavioral scores, infarction area, cerebral blood flow
Protocol: as §1
A specific modeling method for the rat models with focal cerebral ischemia-reperfusion (tMCAO) is as follows. At 12 h before surgery, the rats were fed at about 30 g/piece. After induced anesthesia with 3-4% isoflurane and maintained anesthesia with 1.5-2.5% isoflurane were performed, the rats were placed at supine positions on an operating table at a constant temperature of 37° C. The skin in middle lines of necks was cut, subcutaneous tissues and muscles were bluntly separated, and common carotid arteries on right sides, internal carotid arteries and external carotid arteries were separated. Two ligation threads were allowed to penetrate through the external carotid arteries to ligate distal ends, an artery clamp was placed at the common carotid arteries and the internal carotid arteries, respectively, small incisions were made at 45° diagonally on the external carotid arteries at about 4 mm away from bifurcations of the common carotid arteries, and suitable suture occlusions were inserted to gently ligate proximal ends. […]

SMILES	Latent period of falling (rotarod test) [1]	Percentage of cerebral infarction area ([2]; 3 × 10^−5 mol/kg) [%]	Cerebral blood flow 24 h after last administration [3] [BPU]	Cerebral blood flow improvement percentage [3]	Recovery percentage of cerebral blood flow 24 h after last administration [3]	Cerebral blood flow before administration [3] [BPU]	Decrease percentage of cerebral blood flow before administration [3] [%]	Cerebral blood flow before ischemia [3] [BPU]	Behavioral score ([4]; route printed as Intravenous injection and Gavage, 3 × 10^−5 mol/kg)	Behavioral score ([4]; Gavage, 3 × 10^−5 mol/kg)	Percentage of cerebral infarction area ([2]; 6 × 10^−5 mol/kg)	Behavioral score ([4]; Gavage, 6 × 10^−5 mol/kg)	Overall therapeutic effect in tMCAO rats (in words; vs model control group and between test drug groups) [5]
Cc1cc(OC(=O)c2cccnc2)n(-c2nc(C)c(C)nc2C)n1 [Test drug 1, 3-methyl-1-(3,5,6-trimethylpyrazin-2-yl)-1H-pyrazol-5-nicotinate]	48.7 ± 14.0 s	4.6 ± 1.2	304.8 ± 12.7	28.7 ± 4.9 %	87.8 ± 2.0 %	204.6 ± 10.3	40.9 ± 5.2	347.5 ± 19.3	1.9 ± 0.6				
CC(=O)Oc1cc(C)nn1-c1nc(C)c(C)nc1C [Test drug 2, 3-methyl-1-(3,5,6-trimethylpyrazin-2-yl)-1H-pyrazol-5-acetate]	35.2 ± 23.3 s	5.8 ± 2.2	367.8 ± 36.9	20.9 ± 13.8 %	79.3 ± 8.9 %	213.3 ± 16.6	41.6 ± 8.6	371.8 ± 51.6		2.3 ± 0.7			
CC(=O)Oc1ccccc1C(=O)Oc1cc(C)nn1-c1nc(C)c(C)nc1C [Test drug 3, 3-methyl-1-(3,5,6-trimethylpyrazin-2-yl)-1H-pyrazol-5-yl-2-acetoxybenzoate]	49.7 ± 12.3 s		321.4 ± 54.0	30.3 ± 7.1 %	90.1 ± 4.2**^&& %	210.3 ± 15.1	40.1 ± 6.3	356.5 ± 56.6			3.5 ± 1.6**^& %	1.6 ± 0.7	better than the groups 2 and 5
Cc1cc(OC(=O)c2ccccc2)n(-c2nc(C)c(C)nc2C)n1 [Test drug 4, 3-methyl-1-(3,5,6-trimethylpyrazin-2-yl)-1H-pyrazol-5-yl-benzoate]	43.8 ± 14.9 s	4.5 ± 2.5	321.2 ± 17.0	27.0 ± 7.3 %	87.0 ± 5.8**^& %	220.8 ± 16.4	40.0 ± 7.1	370.2 ± 17.2		1.7 ± 0.7			better than the groups 2 and 5
Cc1cc(OC(=O)C(C)(C)C)n(-c2nc(C)c(C)nc2C)n1 [Test drug 5, 3-methyl-1-(3,5,6-trimethylpyrazin-2-yl)-1H-pyrazol-5-pivalate]	31.5 ± 14.5^ s		275.0 ± 20.5	21.2 ± 4.7*^ %	81.6 ± 5.9**^ %	203.3 ± 8.1	39.5 ± 4.4	337.9 ± 26.0			2.9 ± 1.0 %	2.7 ± 0.9	
